Tests used:
[1] = target: T1, bLinS; linalool synthase; linalool/nerolidol synthase (Streptomyces clavuligerus, UniProt D5SL78); experiment: X-ray crystal structure, co-crystal; EPR with Mn2+; type: binding; settings: 1.82 A; FGPP in monomer A only; one Mg2+; noncatalytic mode suggested; pH 7.5
T1 construct: gene SCLAV_p1185; full-length codon-optimized gene in pETM11, N-terminal 6xHis tag and TEV site, tag cleaved; E. coli ArcticExpress (DE3); ~330 residues; two molecules in asymmetric unit
T1 sequence (D5SL78 1-329): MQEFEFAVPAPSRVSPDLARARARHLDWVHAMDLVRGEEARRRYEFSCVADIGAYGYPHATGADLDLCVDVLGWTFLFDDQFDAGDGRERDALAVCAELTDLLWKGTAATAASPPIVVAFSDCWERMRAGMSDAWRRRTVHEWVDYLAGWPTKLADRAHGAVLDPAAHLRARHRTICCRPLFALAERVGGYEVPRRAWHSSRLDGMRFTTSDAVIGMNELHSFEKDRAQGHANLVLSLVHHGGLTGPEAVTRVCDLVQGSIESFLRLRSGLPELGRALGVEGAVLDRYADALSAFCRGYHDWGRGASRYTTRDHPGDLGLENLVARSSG

[2] = target: T2, bCinS; 1,8-cineole synthase (Streptomyces clavuligerus, UniProt B5GMG2); experiment: X-ray crystal structure, FGPP soaked into FNPP co-crystal; EPR with Mn2+; type: binding; settings: 1.51 A; partial exchange, mixed FNPP/FGPP occupancy; three Mg2+ (third partly occupied); active site
T2 construct: gene cnsA; full-length codon-optimized gene in pETM11, N-terminal 6xHis tag and TEV site, tag cleaved; E. coli ArcticExpress (DE3); ~330 residues; dimer

[3] = target: T1, bLinS; linalool synthase; linalool/nerolidol synthase; experiment: product analysis by GC-MS in engineered E. coli; chiral GC; type: cell-based; settings: host-made FPP in E. coli expressing bLinS; product trans-nerolidol

T2 sequence (B5GMG2 whole entry): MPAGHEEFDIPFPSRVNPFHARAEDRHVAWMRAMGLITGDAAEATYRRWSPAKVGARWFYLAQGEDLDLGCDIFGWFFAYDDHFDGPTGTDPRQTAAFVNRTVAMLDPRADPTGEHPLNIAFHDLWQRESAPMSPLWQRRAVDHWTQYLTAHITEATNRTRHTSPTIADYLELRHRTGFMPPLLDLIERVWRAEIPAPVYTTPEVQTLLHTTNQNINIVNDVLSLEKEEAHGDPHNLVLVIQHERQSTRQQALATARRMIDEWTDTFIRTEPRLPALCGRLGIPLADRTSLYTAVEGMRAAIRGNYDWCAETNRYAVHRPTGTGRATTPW

Compound | X-ray crystal structure, co-crystal; EPR with Mn2+ [1] | X-ray crystal structure, FGPP soaked into FNPP co-crystal; EPR with Mn2+ [2] | product analysis by GC-MS in engineered E. coli; chiral GC [3]
CC(C)=CCC/C(C)=C(\F)COP(=O)(O)OP(=O)(O)O [FGPP, 2-fluorogeranyl pyrophosphate] | clear electron density corresponding to FGPP is only present in monomer A | Soaking of the bCinS-FNPP crystals with FGPP led to the partial exchange | –
CC(C)=CCC/C(C)=C/CC/C(C)=C/COP(=O)(O)OP(=O)(O)O [FPP, farnesyl pyrophosphate] | – | – | Strains containing bLinS were able to convert FPP to nerolidol

— article PMC5617326, “Structural Basis of Catalysis in the Bacterial Monoterpene Synthases Linalool Synthase and 1,8-Cineole Synthase” (ACS Catalysis, 2017)
